According to US12421211B2, “Heterocyclic compounds” (Hoffmann-La Roche Inc., priority 2021, dated 2025):
Structures can show the parent of a compound that is named as a salt. Where two headings read alike, the source gives them in different places.

Tested on: Acinetobacter baumannii ATCC17961
Test: Antimicrobial susceptibility testing: 90% growth inhibitory concentration (IC90) determination
Assay type: cell-based
Conditions: Acinetobacter baumannii, ATCC17961, 16 h, read-out: ATCC 17961 IC90
Outline: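 A. baumannii ATCC17961 at ~5×10^5 CFU/ml in Iso-Sensitest broth exposed to 10-point twofold dilutions (e.g. 50–0.097 μM final), 35±2° C. OD600 read every 20 minutes over 16h; IC50 and IC90 derived from inhibition during logarithmic growth.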

[1] = 90% growth inhibitory concentration, Acinetobacter baumannii ATCC17961, Iso-Sensitest broth, OD 600 nm over 16 h

Row | Compound | IC90 [1] | IC90
1 | Cc1nn(CC(=O)NC23CC(C#N)(C2)C3)cc1-c1ccc(-c2cnc(C(=O)Nc3ccc(C(=O)N4CCN(C(=O)C5CC[N+](C)(C)CC5)CC4)c(Cl)c3)n2C)c(F)c1F [Example G4, N-[3-chloro-4-[4-(1,1-dimethylpiperidin-1-ium-4-carbonyl)piperazine-1-carbonyl]phenyl]-5-[4-[1-[2-[(3-cyano-1-bicyclo[1.1.1]pentanyl)amino]-2-oxo-ethyl]-3-methyl-pyrazol-4-yl]-2,3-difluoro-phenyl]-1-methyl-imidazole-2-carboxamide; formate] |  | 0.19 µM
2 | Cc1nn(CC(=O)NC2CCCCC2)cc1-c1ccc(-c2cnc(C(=O)Nc3ccc(C(=O)N4CCN(C(=O)C5CC[N+](C)(C)CC5)CC4)c(Cl)c3)n2C)c(F)c1F [Example G9, N-[3-chloro-4-[4-(1,1-dimethylpiperidin-1-ium-4-carbonyl)piperazine-1-carbonyl]phenyl]-5-[4-[1-[2-(cyclohexylamino)-2-oxo-ethyl]-3-methyl-pyrazol-4-yl]-2,3-difluoro-phenyl]-1-methyl-imidazole-2-carboxamide; formate] | 0.21 µM | 
3 | Cc1nn(CC(=O)Nc2nccs2)cc1-c1ccc(-c2cnc(C(=O)Nc3ccc(C(=O)N4CCN(C(=O)C5CC[N+](C)(C)CC5)CC4)c(Cl)c3)n2C)c(F)c1F [Example G10, N-[3-chloro-4-[4-(1,1-dimethylpiperidin-1-ium-4-carbonyl)piperazine-1-carbonyl]phenyl]-5-[2,3-difluoro-4-[3-methyl-1-[2-oxo-2-(thiazol-2-ylamino)ethyl]pyrazol-4-yl]phenyl]-1-methyl-imidazole-2-carboxamide; formate] | 0.12 µM | 
4 | Cc1nn(CC(=O)Nc2cn[nH]c2)cc1-c1ccc(-c2cnc(C(=O)Nc3ccc(C(=O)N4CCN(C(=O)C5CC[N+](C)(C)CC5)CC4)c(Cl)c3)n2C)c(F)c1F [Example G11, N-[3-chloro-4-[4-(1,1-dimethylpiperidin-1-ium-4-carbonyl)piperazine-1-carbonyl]phenyl]-5-[2,3-difluoro-4-[3-methyl-1-[2-oxo-2-(1H-pyrazol-4-ylamino)ethyl]pyrazol-4-yl]phenyl]-1-methyl-imidazole-2-carboxamide; formate] | 0.71 µM | 
5 | Cc1nn(CC(=O)Nc2cnn(C)c2)cc1-c1ccc(-c2cnc(C(=O)Nc3ccc(C(=O)N4CCN(C(=O)C5CC[N+](C)(C)CC5)CC4)c(Cl)c3)n2C)c(F)c1F [Example G12, N-[3-chloro-4-[4-(1,1-dimethylpiperidin-1-ium-4-carbonyl)piperazine-1-carbonyl]phenyl]-5-[2,3-difluoro-4-[3-methyl-1-[2-[(1-methylpyrazol-4-yl)amino]-2-oxo-ethyl]pyrazol-4-yl]phenyl]-1-methyl-imidazole-2-carboxamide; formate] | 0.45 µM | 
6 | Cc1nn(CC(=O)Nc2ncccn2)cc1-c1ccc(-c2cnc(C(=O)Nc3ccc(C(=O)N4CCN(C(=O)C5CC[N+](C)(C)CC5)CC4)c(Cl)c3)n2C)c(F)c1F [Example G16, N-[3-chloro-4-[4-(1,1-dimethylpiperidin-1-ium-4-carbonyl)piperazine-1-carbonyl]phenyl]-5-[2,3-difluoro-4-[3-methyl-1-[2-oxo-2-(pyrimidin-2-ylamino)ethyl]pyrazol-4-yl]phenyl]-1-methyl-imidazole-2-carboxamide; formate] | 1.1 µM | 
7 | Cc1c(-c2ccc(-c3cnc(C(=O)Nc4ccc(C(=O)N5CCN(C(=O)C6CC[N+](C)(C)CC6)CC5)c(Cl)c4)n3C)c(F)c2F)cnn1CC(=O)NC(C)(C)C [Example G18, 5-[4-[1-[2-(tert-butylamino)-2-oxo-ethyl]-5-methyl-pyrazol-4-yl]-2,3-difluoro-phenyl]-N-[3-chloro-4-[4-(1,1-dimethylpiperidin-1-ium-4-carbonyl)piperazine-1-carbonyl]phenyl]-1-methyl-imidazole-2-carboxamide; formate] | 0.51 µM | 
8 | Cc1nn(CC(=O)NC2CCCOC2)cc1-c1ccc(-c2cnc(C(=O)Nc3ccc(C(=O)N4CCN(C(=O)C5CC[N+](C)(C)CC5)CC4)c(Cl)c3)n2C)c(F)c1F (stereo not drawn) [Example G22, N-[3-chloro-4-[4-(1,1-dimethylpiperidin-1-ium-4-carbonyl)piperazine-1-carbonyl]phenyl]-5-[2,3-difluoro-4-[3-methyl-1-[2-oxo-2-(tetrahydropyran-3-ylamino)ethyl]pyrazol-4-yl]phenyl]-1-methyl-imidazole-2-carboxamide; formate] | 0.67 µM | 
9 | Cc1c(-c2ccc(-c3cnc(C(=O)Nc4ccc(C(=O)N5CCN(C(=O)C6CC[N+](C)(C)CC6)CC5)c(Cl)c4)n3C)c(F)c2F)cnn1CC(=O)Nc1cccnn1 [Example G25, N-[3-chloro-4-[4-(1,1-dimethylpiperidin-1-ium-4-carbonyl)piperazine-1-carbonyl]phenyl]-5-[2,3-difluoro-4-[5-methyl-1-[2-oxo-2-(pyridazin-3-ylamino)ethyl]pyrazol-4-yl]phenyl]-1-methyl-imidazole-2-carboxamide; formate] | 1 µM | 
10 | Cc1nn(CC(=O)NC2CCC(F)(F)CC2)cc1-c1ccc(-c2cnc(C(=O)Nc3ccc(C(=O)N4CCN(C(=O)C5CC[N+](C)(C)CC5)CC4)c(Cl)c3)n2C)c(F)c1F [Example G26, N-[3-chloro-4-[4-(1,1-dimethylpiperidin-1-ium-4-carbonyl)piperazine-1-carbonyl]phenyl]-5-[4-[1-[2-[(4,4-difluorocyclohexyl)amino]-2-oxo-ethyl]-3-methyl-pyrazol-4-yl]-2,3-difluoro-phenyl]-1-methyl-imidazole-2-carboxamide; formate] | 0.1 µM | 

Further lines, with some results ahead:

Row | IC90 [1] | Compound | IC90
11 | 0.14 µM | Cc1nn(CC(=O)Nc2ccccc2F)cc1-c1ccc(-c2cnc(C(=O)Nc3ccc(C(=O)N4CCN(C(=O)C5CC[N+](C)(C)CC5)CC4)c(Cl)c3)n2C)c(F)c1F [Example G6, N-[3-chloro-4-[4-(1,1-dimethylpiperidin-1-ium-4-carbonyl)piperazine-1-carbonyl]phenyl]-5-[2,3-difluoro-4-[1-[2-(2-fluoroanilino)-2-oxo-ethyl]-3-methyl-pyrazol-4-yl]phenyl]-1-methyl-imidazole-2-carboxamide; formate] | 
12 | 0.55 µM | COc1ccccc1NC(=O)Cn1cc(-c2ccc(-c3cnc(C(=O)Nc4ccc(C(=O)N5CCN(C(=O)C6CC[N+](C)(C)CC6)CC5)c(Cl)c4)n3C)c(F)c2F)c(C)n1 [Example G7, N-[3-chloro-4-[4-(1,1-dimethylpiperidin-1-ium-4-carbonyl)piperazine-1-carbonyl]phenyl]-5-[2,3-difluoro-4-[1-[2-(2-methoxyanilino)-2-oxo-ethyl]-3-methyl-pyrazol-4-yl]phenyl]-1-methyl-imidazole-2-carboxamide; formate] | 
13 | 0.084 µM | Cc1nn(CC(=O)Nc2ccc(F)cc2)cc1-c1ccc(-c2cnc(C(=O)Nc3ccc(C(=O)N4CCN(C(=O)C5CC[N+](C)(C)CC5)CC4)c(Cl)c3)n2C)c(F)c1F [Example G8, N-[3-chloro-4-[4-(1,1-dimethylpiperidin-1-ium-4-carbonyl)piperazine-1-carbonyl]phenyl]-5-[2,3-difluoro-4-[1-[2-(4-fluoroanilino)-2-oxo-ethyl]-3-methyl-pyrazol-4-yl]phenyl]-1-methyl-imidazole-2-carboxamide; formate] | 
14 | 0.13 µM | Cc1nn(CC(=O)Nc2cccc(F)c2)cc1-c1ccc(-c2cnc(C(=O)Nc3ccc(C(=O)N4CCN(C(=O)C5CC[N+](C)(C)CC5)CC4)c(Cl)c3)n2C)c(F)c1F [Example G13, N-[3-chloro-4-[4-(1,1-dimethylpiperidin-1-ium-4-carbonyl)piperazine-1-carbonyl]phenyl]-5-[2,3-difluoro-4-[1-[2-(3-fluoroanilino)-2-oxo-ethyl]-3-methyl-pyrazol-4-yl]phenyl]-1-methyl-imidazole-2-carboxamide; chloride] | 
15 | 0.089 µM | Cc1nn(CC(=O)Nc2ccccn2)cc1-c1ccc(-c2cnc(C(=O)Nc3ccc(C(=O)N4CCN(C(=O)C5CC[N+](C)(C)CC5)CC4)c(Cl)c3)n2C)c(F)c1F [Example G14, N-[3-chloro-4-[4-(1,1-dimethylpiperidin-1-ium-4-carbonyl)piperazine-1-carbonyl]phenyl]-5-[2,3-difluoro-4-[3-methyl-1-[2-oxo-2-(2-pyridylamino)ethyl]pyrazol-4-yl]phenyl]-1-methyl-imidazole-2-carboxamide; formate] | 
16 | 0.3 µM | Cc1nn(CC(=O)Nc2ccc[n+](C)c2)cc1-c1ccc(-c2cnc(C(=O)Nc3ccc(C(=O)N4CCN(C(=O)C5CC[N+](C)(C)CC5)CC4)c(Cl)c3)n2C)c(F)c1F [Example G15, N-[3-chloro-4-[4-(1,1-dimethylpiperidin-1-ium-4-carbonyl)piperazine-1-carbonyl]phenyl]-5-[2,3-difluoro-4-[3-methyl-1-[2-[(1-methylpyridin-1-ium-3-yl)amino]-2-oxo-ethyl]pyrazol-4-yl]phenyl]-1-methyl-imidazole-2-carboxamide; diformate] | 
17 | 0.72 µM | Cc1nn(CC(=O)Nc2ccncc2)cc1-c1ccc(-c2cnc(C(=O)Nc3ccc(C(=O)N4CCN(C(=O)C5CC[N+](C)(C)CC5)CC4)c(Cl)c3)n2C)c(F)c1F [Example G17, N-[3-chloro-4-[4-(1,1-dimethylpiperidin-1-ium-4-carbonyl)piperazine-1-carbonyl]phenyl]-5-[2,3-difluoro-4-[3-methyl-1-[2-oxo-2-(4-pyridylamino)ethyl]pyrazol-4-yl]phenyl]-1-methyl-imidazole-2-carboxamide; chloride] | 
18 | 0.27 µM | Cc1nn(CC(=O)Nc2cccnn2)cc1-c1ccc(-c2cnc(C(=O)Nc3ccc(C(=O)N4CCN(C(=O)C5CC[N+](C)(C)CC5)CC4)c(Cl)c3)n2C)c(F)c1F [Example G23, N-[3-chloro-4-[4-(1,1-dimethylpiperidin-1-ium-4-carbonyl)piperazine-1-carbonyl]phenyl]-5-[2,3-difluoro-4-[3-methyl-1-[2-oxo-2-(pyridazin-3-ylamino)ethyl]pyrazol-4-yl]phenyl]-1-methyl-imidazole-2-carboxamide; formate] | 
